Assay results published in patent US6733998B1, “Micromonospora echinospora genes coding for biosynthesis of calicheamicin and self-resistance thereto” (priority 1998, dated 2004).

Assays:
[1] = tested on: yeast; experiment: Calicheamicin resistance on transgenic expression of calC in yeast; format: cell-based
Text: (§1) DNA containing calC was cloned into an inducible vector, using known methods, resulting in overexpression of calC. The polypeptide product (CalC) was then isolated and purified to homogeneity. […] Another aspect of the invention is an expression vector containing calC or a fragment of calC coding for a bioactive molecule. There is also provided a transformed host cell, preferably bacteria, more preferably E. coli, containing calC or a fragment of calC coding for a bioactive molecule. Such transgenic expression of calC results in an 10^5-fold increase in calicheamicin resistance in E. coli, a 100-fold increase in resistance in S. lividans, and a 50-fold increase in resistance in yeast.

[2] = tested on: HT1080 (human) cell line; experiment: Calicheamicin resistance on transgenic expression of calC in HT1080 cell line; format: cell-based
Text: The present invention provides for the transformation of human cells with the calC gene. The transgenic expression of calC in the HT1080 (human) cell line increased its resistance to calicheamicin 10-fold. This technique allows bone marrow cells, for example, to be removed from a patient being treated with calicheamicin, and for these cells to be transformed with calC, and for the transformed cells to be returned to the patient. This allows the patient to tolerate treatment with calicheamicin or allows the patient to receive higher doses of calicheamicin as the returned human-calC-transformed cells have calicheamicin resistance. The transformation is performed by methods known in the art. The embodiment of the invention would be applicable to many diseases being treated with calicheamicin.

[3] = tested on: E. coli; experiment: Growth of cosmid/plasmid-carrying clones on LB plates containing calicheamicin (maximum tolerated concentration); format: cell-based; settings: for Maximum tolerated concentration of calicheamicin: LB plates
Description: To isolate the gene(s) responsible for calicheamicin resistance in Micromonospora, clones conferring calicheamicin resistance were selected by growth of a Micromonospora genomic bifunctional cosmid library on LB plates containing ampicillin (50 μg ml^−1) and calicheamicin (0.25 μg ml^−1). […] Restriction mapping of these clones localized the desired phenotype to a ˜2kb PstI-SacI fragment of DNA. (FIG. 2). Maximum tolerated concentrations of calicheamicin on the LB plates was ascertained. The results are as follows:
The proximal 1 kb of this fragment carried the single orf calD while the distal 1 kb presented orf calC. […] Therefore, it was hypothesized that calD was not responsible for calicheamicin resistance. To rule out calD as being responsible for calicheamicin resistance, a subclone was engineered (pJT1224) to contain an intact calD, but the truncated calC gene. This subclone was not able to confer resistance to calicheamicin. Next, a subclone containing the calC region was constructed (pJT1232). This clone conferred calicheamicin resistance, as indicated in the above chart.
To ascertain the amino acid sequence of CalC and learn its properties, calC was cloned into a pMAL-C2 vector. (pMAL-C2 by itself could not confer calicheamicin resistance. See above chart.) The resulting plasmid, pRE7, which contained calC, conferred resistance to calicheamicin. See above chart. Plasmid pRE7 was then induced with isopropyl Beta-D-thiogalactoside (“IPTG”) to overexpress CalC. Induced pRE7 conferred resistance to calicheamicin and produced a maltose-binding protein CalC fusion protein (mbp-CalC). This resulting overexpression of CalC increased calicheamicin resistance 10^2-fold in vivo. See above chart.

[4] = tested on: supercoiled pBlusecript plasmid DNA; experiment: In vitro calicheamicin-induced DNA cleavage assay (agarose gel); format: biochemical
Description: To test this theory, preliminary assays were performed with supercoiled pBlusecript plasmid DNA (“pBS”) as the template, and dithiothreitol (“DTT”) as the reductive initiator. In a typical assay, purified mbp-CalC (15.0 nM) and 30.0 nM calicheamicin were preincubated for 15 min. in a total volume of 25 μL 40 mM Tris-Cl, pH 7.5, at 37° C. Then 2.5 μL 10 mM DTT stock solution was added to the assay solution, and the assay was incubated an additional 1 hour at 37° C. DNA fragmentation was assessed by electrophoresis on a 1% agarose gel stained with ethidium bromide.
Reconstitution of apo-mbp-CalC was accomplished by preincubation with 1 mM FeSO4 (Fe^+2) or FeCl3 (Fe^+3) prior to the activity assay as previously described.

[5] = tested on: CalC; experiment: Interaction of calicheamicin with CalC measured by CalC tryptophan fluorescence; format: binding, Micromonospora echinospora
Text: CalC has 5 tryptophan and no cysteine residues and is unaffected by the reductive activator dithiothreitol (DTT). As the concentration of calicheamicin (3) increases in the absence of DTT there is little change in the CalC Trp fluorescence intensity.

[6] = tested on: S. lividans; experiment: Calicheamicin resistance on transgenic expression of calC in S. lividans; format: cell-based
Text: as §1

[7] = tested on: break light B (BamHI recognition sequence 5′-GGATCC-3′); experiment: Molecular break light assay, break light B; format: biochemical
Text: (§2) The invention further provides for a method of assaying the calicheamicin-induced DNA cleavage and its CalC-mediated inhibition using the molecular break light assay. Two molecular break lights (MLBs) for the experiments are described in example 7. Break light A is comprised of a 10-base pair stem which contained the known calicheamicin recognition sequence 5′-TCCT-3′, while break light B carries the BamHI endonuclease recognition sequence 5′-GGATCC-3′. The 5′-fluorophore of both probes was fluorescein (FAM, absorbancemax=485 nm, emissionmax=517 nm) while the corresponding 3′-quencher was 4-(4′-dimethylaminophenylazo)benzoic acid (DABCYL). Generally, MLBs operate by a separation of the fluorophore-quencher pair resulting a corresponding fluorescent signal.
The invention further provides for a method of assaying the calicheamicin-induced DNA cleavage and its CalC mediated inhibition using the molecular break light assay. Break light A was comprised of a 10-base pair stem which contained the known calicheamicin recognition sequence 5′-TCCT-3′, while break light B carried the BamHI endonuclease recognition sequence 5′-GGATCC-3′. […] The loop of both probes consisted of a T4 loop to ensure non-hybridizing interactions. The 5′-fluorophore of both probes was fluorescein (FAM, absorbancemax=485 nm, emissionmax=517 nm) while the corresponding 3′-quencher was 4-(4′-dimethylaminophenylazo)benzoic acid (DABCYL). […]
(§3) Enzymalic Cleavage as Proof of Principle. […] In comparison, control samples containing break lights alone or break lights in the presence of BSA gave no change in fluorescence over >2 hr at 37° C. Given the lack of fluorescence in the absence of enzyme, the designed break lights show no appreciable melting at the designated assay temperature.
Consistent with this finding, PAGE analysis of the reaction products confirmed the presence of a […] after excess treatment with BamHI which is completely degraded upon DNaseI digestion. As a result, the fluorescence maxium observed with excess BamHI was designated 100% cleavage for the BamHI kinetic studies described below. […]

[8] = tested on: break light A (calicheamicin recognition sequence 5′-TCCT-3′); experiment: Molecular break light assay, break light A; format: biochemical; settings: for Maximum fluorescence obtained upon cleavage of break light A: excess DTT
Text: as §2
The invention further provides for a method of assaying the calicheamicin-induced DNA cleavage and its CalC mediated inhibition using the molecular break light assay. Break light A was comprised of a 10-base pair stem which contained the known calicheamicin recognition sequence 5′-TCCT-3′, while break light B carried the BamHI endonuclease recognition sequence 5′-GGATCC-3′. […] The loop of both probes consisted of a T4 loop to ensure non-hybridizing interactions. The 5′-fluorophore of both probes was fluorescein (FAM, absorbancemax=485 nm, emissionmax=517 nm) while the corresponding 3′-quencher was 4-(4′-dimethylaminophenylazo)benzoic acid (DABCYL). Previous studies have shown DABCYL to serve as a universal quencher in molecular beacons and there is significant spectral overlap (1.02×10^−15 M^−1 cm^3) between the emission spectrum of FAM and the absorption spectrum of DABCYL.
as §3, with “Principle. […] Specifically, only break light B should cleave in the presence of the restriction endonuclease BamHI while both A and B should be digested by the non-specific nuclease DNaseI.” for “Principle.”
Enediyne-Catalyzed Cleavage. Previous assays for enediyne cleavage of DNA relied upon discontinuous assays using radioactive DNA probes, electrophoresis and subsequent phosphoimager analysis. In contrast, by using break lights one can directly follow the extent of DNA cleavage by a specific enediyne in real time with high sensitivity. […] Under the conditions described, this assay allows the detection of 1 in the pM range. This sensitivity compares to that of the biochemical induction assay (BIA), the method of choice in detecting DNA-damaging agents. […] This supports the view that the specificity of 1 is more dependent upon context and perhaps less so on DNA sequence. It should also be noted that 1 leads to predominately double-stranded cleavage while 2 provides single-stranded nicks and the current molecular break light assay can not distinguish these two phenomena.
CalC inhibits calicheamicin mediated DNA cleavage. […] 3.6 pM break light A is coincubated with 3.5 nM calicheamicin with increasing amounts of CalC (0.0 nm, 1.3 nm, 2.6 nm, 3.9 nm, 5.2 nm). Complete inhibition of calicheamicin is achieved with roughly 2-fold excess of CalC. CalC has no effect on esperamicin-induced cleavage of DNA (data not shown).

[9] = tested on: E. coli; experiment: Calicheamicin resistance on transgenic expression of calC in E. coli; format: cell-based
Text: as §1

In the case of calicheamicin, the “Increase in calicheamicin resistance on transgenic expression of calC” value [1] is reported as 50 fold, the “Increase in resistance to calicheamicin on transgenic expression of calC” value [2] is reported as 10 fold and the “Maximum tolerated concentration of calicheamicin” value (from here on “Maximum tolerated concentration”) ([3]; cosmids 3a, 4a, 10a, 13a, and 16a) is reported as 0.5 µg/mL. For the same molecule, the “Maximum tolerated concentration” value ([3]; induced pRE7 (IPTG)) was 50.0 µg/mL, the “Maximum tolerated concentration” value ([3]; pJT1214 and pJT1232) was 5.0 µg/mL and the “Maximum tolerated concentration” value ([3]; pJT1224, pAP6, Pre1, and control plasmids pUC18, pBluescript, and pMAL-C2) was under 0.01 µg/mL. The “Maximum tolerated concentration” value ([3]; pRE7 (calC in pMAL-C2)) was 20.0 µg/mL, the “Increase in calicheamicin resistance on overexpression of CalC” value ([3]; induced pRE7, in vivo) was 10^2 fold and the DNA cleavage ([4]; in the absence of DTT) was “no DNA cleavage”. The DNA cleavage ([4]; in the presence of DTT and calicheamicin) was “efficient cleavage”, the “Binding to CalC (CalC Trp fluorescence intensity)” value ([5]; addition of DTT to activate calicheamicin) was “increased binding” and the “Change in CalC Trp fluorescence intensity” value ([5]; increasing calicheamicin concentration, absence of DTT) was “little change”. The “Increase in calicheamicin resistance on transgenic expression of calC” value [6] was 100 fold, the “Rate of cleavage of molecular break light B compared with break light A” value [7] was “identical rate” and the “Maximum fluorescence obtained upon cleavage of break light A” value ([8]; 3.2 nM break light A, 37° C.) was “identical to that observed with DNaseI”. The “Increase in calicheamicin resistance on transgenic expression of calC” value [9] was 10^5 fold.

esperamicin was tested, and the “Maximum fluorescence obtained upon cleavage of break light A” value ([8]; 3.2 nM break light A, 37° C.) was “identical to that observed with DNaseI”.

B1: BamHI: restriction endonuclease (protein, UniProt P23940 1-213, looked up)
Type II restriction enzyme …: MEVEKEFITDEAKELLSKDKLIQQAYNEVKTSICSPIWPATSKTFTINNTEKNCNGVVPIKELCYTLLEDTYNWYREKPLDILKLEKKKGGPIDVYKEFIENSELKRVGMEFETGNISSAHRSMNKLLLGLKHGEIDLAIILMPIKQLAYYLTDRVTNFEELEPYFELTEGQPFIFIGFNAEAYNSNVPLIPKGSDGMSKRSIKKWKDKVENK
For B1, the “Change of fluorescence over time” value ([7]; 3.2 nM break light B, 37° C.) was “increase of fluorescence”, the “Fluorescence maximum intensity upon complete cleavage, relative to that observed with DNaseI” value ([7]; same concentration of molecular break light) was 75% and the “Change of fluorescence over time” value ([8]; 3.2 nM break light A, 37° C.) was “no change”.

B2: CalC: polypeptide conferring calicheamicin resistance, 181 amino acids, SEQ ID. NO. 2 (protein)
chain: MTQEKTAPAAKSTTTKSTAAKKPKPPNYDPFVRHSVTVKADRKTAFKTFLEGFPEWWPNNFRTTKVGAPLGVDKKGGRWYEIDEQGEEHTFGLIRKVDEPDTLVIGWRLNGFGRIDPDNSSEFTVTFVADGQKKTRVDVEHTHFDRMGTKHAKRVRNGMDKGWPTILQSFQDKIDEEGAKK
modifications: Bacteria
For B2, the “Effect on esperamicin-induced cleavage of DNA” value [8] was “no effect”, the “Excess of CalC giving complete inhibition of calicheamicin-mediated DNA cleavage” value ([8]; 3.6 pM break light A, 3.5 nM calicheamicin) was “roughly 2 fold” and the “Inhibition of calicheamicin mediated DNA cleavage” value ([8]; CalC in a two-fold molar excess of calicheamicin) was “completely abolishes”.
